Data as given in PubChem BioAssay AID1963868 (Molecular Pharmacology Branch, DTP, NCI, 2024).
pIC50: −log10 of the molar value.

Tested on: KRAS PDC tumor spheroids (HUVEC+MSC), viability
Experiment: Anticancer human tumor 254851-301-R-J1-PDC patient-derived colon carcinoma cell line growth inhibition [KRAS2]
Conditions: for pIC50: curve of first compound; for viability, T/C: stronger effect = lower value
Procedure, shortened: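 KRAS-mutant tumor cells were grown as spheroids with HUVEC endothelial cells and human MSCs as stroma. Targeted agents were tested alone and with KRAS pathway inhibitors. Doses started at or near clinical Cmax, or 10 microM, descending half-log.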

[1] = second compound 0.1 µM, first compound 0.000316 µM
[2] = second compound 0.1 µM, first compound 0.001 µM
[3] = second compound 0.1 µM, first compound 0.00316 µM
[4] = second compound 0.1 µM, first compound 0.01 µM
[5] = second compound 0.1 µM, first compound 0.0316 µM
[6] = second compound 0.316 µM, first compound 0.000316 µM
[7] = second compound 0.316 µM, first compound 0.001 µM
[8] = second compound 0.316 µM, first compound 0.00316 µM
[9] = second compound 0.316 µM, first compound 0.01 µM
[10] = second compound 0.316 µM, first compound 0.0316 µM
[11] = second compound 1 µM, first compound 0.000316 µM
[12] = second compound 1 µM, first compound 0.001 µM
[13] = second compound 1 µM, first compound 0.00316 µM
[14] = second compound 1 µM, first compound 0.01 µM
[15] = second compound 1 µM, first compound 0.0316 µM
[16] = second compound 3.16 µM, first compound 0.000316 µM
[17] = second compound 3.16 µM, first compound 0.001 µM
[18] = second compound 3.16 µM, first compound 0.00316 µM
[19] = second compound 3.16 µM, first compound 0.01 µM
[20] = second compound 3.16 µM, first compound 0.0316 µM
[21] = second compound 10 µM, first compound 0.000316 µM
[22] = second compound 10 µM, first compound 0.001 µM
[23] = second compound 10 µM, first compound 0.00316 µM
[24] = second compound 10 µM, first compound 0.01 µM
[25] = second compound 10 µM, first compound 0.0316 µM
[26] = second compound 0.1 µM, first compound 0.1 µM
[27] = second compound 0.316 µM, first compound 0.1 µM
[28] = second compound 1 µM, first compound 0.1 µM
[29] = second compound 3.16 µM, first compound 0.1 µM
[30] = second compound 10 µM, first compound 0.1 µM
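Also: spheroids exposed to compounds for seven days before readout.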
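For viability, T/C in this document: 100% = DMSO vehicle control luminescence of the spheroids.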

`CC(=O)Nc1cccc(-n2c(=O)n(C3CC3)c(=O)c3c(Nc4ccc(I)cc4F)n(C)c(=O)c(C)c32)c1` + CNCc1ccccc1-c1csc(C(C)Nc2nc(C)nc3cc(OC)c(OC)cc23)c1 showed a pIC50 (second compound 0.1 µM) of 8.33, a pIC50 (second compound 0.316 µM) of 8.29 and a pIC50 (second compound 1 µM) of 8.62. For the same molecule, the pIC50 (second compound 3.16 µM) was 9.19, the pIC50 (second compound 10 µM) was > 10.00 and the viability, T/C (second compound 0.1 µM, first compound 0.0001 µM) was 101%. The viability, T/C [1] was 101%, the viability, T/C [2] was 87.7% and the viability, T/C [3] was 71%. It also gave a viability, T/C [4] of 11.4%, a viability, T/C [5] of 2.93% and a viability, T/C (second compound 0.316 µM, first compound 0.0001 µM) of 82.5%. For the same molecule, the viability, T/C [6] was 99.8%, the viability, T/C [7] was 87.1% and the viability, T/C [8] was 78.2%. The viability, T/C [9] was 12.6%, the viability, T/C [10] was 2.77% and the viability, T/C (second compound 1 µM, first compound 0.0001 µM) was 94.4%. For the same molecule, the viability, T/C [11] was 94.9%, the viability, T/C [12] was 88.2% and the viability, T/C [13] was 37.9%. For the same molecule, the viability, T/C [14] was 5.82%, the viability, T/C [15] was 2.26% and the viability, T/C (second compound 3.16 µM, first compound 0.0001 µM) was 72.5%. The viability, T/C [16] was 74.9%, the viability, T/C [17] was 34.9% and the viability, T/C [18] was 0.57%. The viability, T/C [19] was 0.32%, the viability, T/C [20] was 0.28% and the viability, T/C (second compound 10 µM, first compound 0.0001 µM) was 0.16%. It also gave a viability, T/C [21] of 0.15%, a viability, T/C [22] of 0.13% and a viability, T/C [23] of 0.1%. For the same molecule, the viability, T/C [24] was 0.09% and the viability, T/C [25] was 0.15%.
For `CC(C)n1nc(-c2ccc3oc(N)nc3c2)c2c(N)ncnc21` + CNCc1ccccc1-c1csc(C(C)Nc2nc(C)nc3cc(OC)c(OC)cc23)c1, the pIC50 (second compound 0.1 µM) was 7.73, the pIC50 (second compound 0.316 µM) was 7.71 and the pIC50 (second compound 1 µM) was 7.76. The pIC50 (second compound 3.16 µM) was 8.22, the pIC50 (second compound 10 µM) was > 9.50 and the viability, T/C [1] was 110%. It also gave a viability, T/C [2] of 98.6%, a viability, T/C [3] of 89.2% and a viability, T/C [4] of 64.8%. For the same molecule, the viability, T/C [5] was 36.8%, the viability, T/C [26] was 23.3% and the viability, T/C [6] was 96.1%. It also gave a viability, T/C [7] of 105%, a viability, T/C [8] of 82% and a viability, T/C [9] of 73.4%. It also gave a viability, T/C [10] of 33.8%, a viability, T/C [27] of 23.4% and a viability, T/C [11] of 88.6%. The viability, T/C [12] was 95%, the viability, T/C [13] was 80.4% and the viability, T/C [14] was 68%. The viability, T/C [15] was 31.4%, the viability, T/C [28] was 19.5% and the viability, T/C [16] was 81.1%. For the same molecule, the viability, T/C [17] was 76.7%, the viability, T/C [18] was 53.8% and the viability, T/C [19] was 45.9%. The viability, T/C [20] was 25%, the viability, T/C [29] was 9.11% and the viability, T/C [21] was 0.21%. The viability, T/C [22] was 0.19%, the viability, T/C [23] was 0.17% and the viability, T/C [24] was 0.14%. The viability, T/C [25] was 0.14% and the viability, T/C [30] was 0.19%.
For `CC1(C)CCC(CN2CCN(c3ccc(C(=O)NS(=O)(=O)c4ccc(NCC5CCOCC5)c([N+](=O)[O-])c4)c(Oc4cnc5[nH]ccc5c4)c3)CC2)=C(c2ccc(Cl)cc2)C1` + CNCc1ccccc1-c1csc(C(C)Nc2nc(C)nc3cc(OC)c(OC)cc23)c1, the pIC50 (second compound 0.1 µM) was < 5.00, the pIC50 (second compound 0.316 µM) was < 5.00 and the pIC50 (second compound 1 µM) was 5.51. The pIC50 (second compound 3.16 µM) was 5.95, the pIC50 (second compound 10 µM) was > 7.50 and the viability, T/C [5] was 100%. It also gave a viability, T/C [26] of 104%, a viability, T/C (second compound 0.1 µM, first compound 0.316 µM) of 100% and a viability, T/C (second compound 0.1 µM, first compound 1 µM) of 94.8%. It also gave a viability, T/C (second compound 0.1 µM, first compound 3.16 µM) of 94%, a viability, T/C (second compound 0.1 µM, first compound 10 µM) of 86% and a viability, T/C [10] of 91.9%. The viability, T/C [27] was 102%, the viability, T/C (second compound 0.316 µM, first compound 0.316 µM) was 99.7% and the viability, T/C (second compound 0.316 µM, first compound 1 µM) was 100%. For the same molecule, the viability, T/C (second compound 0.316 µM, first compound 3.16 µM) was 87.7%, the viability, T/C (second compound 0.316 µM, first compound 10 µM) was 81.2% and the viability, T/C [15] was 93.3%. The viability, T/C [28] was 102%, the viability, T/C (second compound 1 µM, first compound 0.316 µM) was 92.9% and the viability, T/C (second compound 1 µM, first compound 1 µM) was 83.2%. For the same molecule, the viability, T/C (second compound 1 µM, first compound 3.16 µM) was 49.6%, the viability, T/C (second compound 1 µM, first compound 10 µM) was 16.4% and the viability, T/C [20] was 80.4%. For the same molecule, the viability, T/C [29] was 75.1%, the viability, T/C (second compound 3.16 µM, first compound 0.316 µM) was 71.6% and the viability, T/C (second compound 3.16 µM, first compound 1 µM) was 55%. The viability, T/C (second compound 3.16 µM, first compound 3.16 µM) was 1.17%, the viability, T/C (second compound 3.16 µM, first compound 10 µM) was 0.61% and the viability, T/C [25] was 0.17%. The viability, T/C [30] was 0.2%, the viability, T/C (second compound 10 µM, first compound 0.316 µM) was 0.17% and the viability, T/C (second compound 10 µM, first compound 1 µM) was 0.15%. It also gave a viability, T/C (second compound 10 µM, first compound 3.16 µM) of 0.12% and a viability, T/C (second compound 10 µM, first compound 10 µM) of 0.17%.
